Each structure is given as a SMILES string.

For the test, the target named is Adenylate cyclase type 5 (Homo sapiens, UniProt O95622). Briefly: Inhibitory concentration against Type V Adenyl Cyclase enzyme.
Chain of Adenylate cyclase type 5 (O95622 whole entry): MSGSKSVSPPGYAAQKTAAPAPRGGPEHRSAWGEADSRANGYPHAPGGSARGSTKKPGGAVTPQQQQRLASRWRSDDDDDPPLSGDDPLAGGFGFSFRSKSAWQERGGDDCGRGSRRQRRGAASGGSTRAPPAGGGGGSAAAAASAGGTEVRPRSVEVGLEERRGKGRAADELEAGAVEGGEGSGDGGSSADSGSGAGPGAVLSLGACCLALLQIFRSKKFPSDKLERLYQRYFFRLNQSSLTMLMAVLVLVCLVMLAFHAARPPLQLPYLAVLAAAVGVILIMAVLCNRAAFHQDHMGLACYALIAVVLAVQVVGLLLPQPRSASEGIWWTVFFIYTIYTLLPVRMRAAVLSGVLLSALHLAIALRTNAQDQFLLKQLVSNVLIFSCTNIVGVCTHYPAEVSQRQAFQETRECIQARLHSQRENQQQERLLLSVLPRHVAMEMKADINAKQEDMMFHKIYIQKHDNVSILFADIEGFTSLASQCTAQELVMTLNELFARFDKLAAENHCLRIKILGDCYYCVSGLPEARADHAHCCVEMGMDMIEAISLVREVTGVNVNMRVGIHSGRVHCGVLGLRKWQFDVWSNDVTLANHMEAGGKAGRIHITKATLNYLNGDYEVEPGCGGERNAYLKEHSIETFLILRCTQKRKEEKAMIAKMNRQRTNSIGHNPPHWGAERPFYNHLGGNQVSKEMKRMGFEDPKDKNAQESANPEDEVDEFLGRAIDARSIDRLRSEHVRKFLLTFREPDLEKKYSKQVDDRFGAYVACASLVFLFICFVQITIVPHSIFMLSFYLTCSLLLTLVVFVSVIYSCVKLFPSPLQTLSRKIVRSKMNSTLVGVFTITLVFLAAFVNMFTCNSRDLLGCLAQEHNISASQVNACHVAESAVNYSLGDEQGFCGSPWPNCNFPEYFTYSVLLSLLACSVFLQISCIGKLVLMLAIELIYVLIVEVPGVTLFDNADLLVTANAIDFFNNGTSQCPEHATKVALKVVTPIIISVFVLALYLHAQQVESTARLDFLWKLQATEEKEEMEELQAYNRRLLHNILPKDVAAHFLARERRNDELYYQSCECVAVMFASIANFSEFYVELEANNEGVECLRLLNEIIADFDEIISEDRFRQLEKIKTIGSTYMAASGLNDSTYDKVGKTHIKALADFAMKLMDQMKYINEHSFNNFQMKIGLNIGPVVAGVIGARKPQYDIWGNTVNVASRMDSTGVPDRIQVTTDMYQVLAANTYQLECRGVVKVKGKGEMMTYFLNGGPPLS
With `Nc1ncnc2c1ncn2[C@H]1C=C[C@@H](OCC(=O)O)C1`, the IC50 (as a rule, the concentration that inhibits the measured activity by half) stood at 78 µM.
Compound `Nc1ncnc2c1ncn2[C@H]1CC[C@@H](OCC(=O)O)C1` had an IC50 greater than 200 µM.
`Nc1ncnc2c1ncn2[C@H]1CC[C@@H](OCC(=O)NO)C1` (stereo in doubt; 8a) came in with a concentration for half-maximal inhibition (IC50) of 110 µM.
Turning to `Nc1ncnc2c1ncn2[C@@H]1CC[C@H](OCC(=O)NO)C1` (stereo in doubt; 8b), the IC50 came out at 10.8 µM.
Under `Nc1ncnc2c1ncn2[C@H]1C=C[C@@H](OCC(=O)NO)C1` (stereo in doubt; 5b) stands 13.6 µM.
As to `Nc1ncnc2c1ncn2[C@H]1C=C[C@H](OCC(=O)O)C1`, the IC50 is greater than 200 µM.
The result for `Nc1ncnc2c1ncn2[C@@H]1CC[C@@H](OCC(=O)O)C1` reads greater than 200 µM; that for `Nc1ncnc2c1ncn2[C@H]1CC[C@@H](OCC(=O)NO)C1` (stereo in doubt; 8c), greater than 200 µM; that for `Nc1ncnc2c1ncn2[C@@H]1C=C[C@@H](OCC(=O)O)C1`, 72 µM.
Under `Nc1ncnc2c1ncn2[C@@H]1C=C[C@H](OCC(=O)NO)C1` (stereo in doubt; 5d) stands 96 µM; under `Nc1ncnc2c1ncn2[C@H]1C=C[C@@H](OCC(=O)NO)C1` (stereo in doubt; 5c), 116 µM; under `Nc1ncnc2c1ncn2[C@H]1CC[C@H](OCC(=O)O)C1`, greater than 200 µM.
Compound `Nc1ncnc2c1ncn2[C@@H]1C=C[C@H](OCC(=O)NO)C1` (stereo in doubt; 5a) returned a 50% inhibitory concentration (IC50) of 102 µM.
Under `Nc1ncnc2c1ncn2[C@@H]1CC[C@H](OCC(=O)NO)C1` (stereo in doubt; 8d) stands 109 µM; under `Nc1ncnc2c1ncn2[C@@H]1C=C[C@H](OCC(=O)O)C1`, 98 µM.
Under `Nc1ncnc2c1ncn2[C@@H]1CC[C@H](OCC(=O)O)C1` stands 79 µM.

The values are drawn from ChEMBL document CHEMBL1134933, “Hydroxamate based inhibitors of adenylyl cyclase. Part 2: the effect of cyclic linkers on P-site binding” (Bioorg Med Chem Lett, 2002).
